Assay [1] deals with T1, human A3 receptor (Homo sapiens, UniProt P0DMS8).
T1 construct: expressed in transfected cells; host or cells: HeLa
T1 sequence (P0DMS8 1-318): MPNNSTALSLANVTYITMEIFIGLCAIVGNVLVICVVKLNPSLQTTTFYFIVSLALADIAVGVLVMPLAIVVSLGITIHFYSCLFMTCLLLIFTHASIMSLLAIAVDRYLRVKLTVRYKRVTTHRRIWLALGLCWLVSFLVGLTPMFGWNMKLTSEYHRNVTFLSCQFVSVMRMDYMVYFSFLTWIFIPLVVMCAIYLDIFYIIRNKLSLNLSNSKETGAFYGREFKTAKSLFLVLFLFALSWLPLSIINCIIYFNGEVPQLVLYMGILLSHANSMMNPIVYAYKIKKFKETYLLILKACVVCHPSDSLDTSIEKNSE
The assay can be described thus: A3 radioligand filtration binding assay (3H-NECA). Particulars: for inhibition at 1 µM: at indicated concentration (1000 nM), read-out: % inhibition of radioligand binding at indicated concentration, hA3; for Ki: membranes from HeLa cells transfected with human A3 receptor, read-out: Ki hA3. On the procedure:
For A3 receptors, in filtration binding assay, 30 nM ^3H-NECA, […] unlabelled R-PIA, […] membranes from HeLa cells transfected with human A3 receptor, incubated 3 h. at room temperature in TrisHCl 50 mM pH 7.4, EDTA 1 mM, MgCl2 5 mM, 2 U/ml adenosin deaminase.

Assay [2] addresses T2, human A1 receptor (Homo sapiens, UniProt P30542).
T2 construct: host or cells: CHO
T2 sequence (P30542 1-326): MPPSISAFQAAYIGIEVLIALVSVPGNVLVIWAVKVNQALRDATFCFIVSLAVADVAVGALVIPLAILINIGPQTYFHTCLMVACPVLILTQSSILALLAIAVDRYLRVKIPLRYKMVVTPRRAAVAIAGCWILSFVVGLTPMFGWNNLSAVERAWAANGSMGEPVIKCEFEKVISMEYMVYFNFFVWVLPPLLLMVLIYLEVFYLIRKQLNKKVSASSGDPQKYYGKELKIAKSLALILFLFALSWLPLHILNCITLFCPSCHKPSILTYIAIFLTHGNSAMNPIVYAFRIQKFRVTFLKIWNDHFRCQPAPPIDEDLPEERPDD
As to the kind of experiment: A1 radioligand filtration binding assay (3H-DPCPX). Particulars: membranes from CHO cells transfected with human A1 receptor; mean of at least two independent determinations; read-out: Ki hA1. The procedure: For A1 receptors a filtration binding assay was performed with 2 nM ^3H-DPCPX, […] unlabelled R-PIA, membranes from CHO cells transfected with human A1 receptor (Euroscreen ES-010-C) and incubated 90 min. at room temperature in Hepes 20 mM pH 7.4, NaCl 100 mM, MgCl2 10 mM and 2 U/ml adenosin deaminase.

Assay [3] concerns the target T3, human A2B receptor (Homo sapiens, UniProt P29275).
T3 construct: host or cells: HEK293
T3 sequence (P29275 1-332): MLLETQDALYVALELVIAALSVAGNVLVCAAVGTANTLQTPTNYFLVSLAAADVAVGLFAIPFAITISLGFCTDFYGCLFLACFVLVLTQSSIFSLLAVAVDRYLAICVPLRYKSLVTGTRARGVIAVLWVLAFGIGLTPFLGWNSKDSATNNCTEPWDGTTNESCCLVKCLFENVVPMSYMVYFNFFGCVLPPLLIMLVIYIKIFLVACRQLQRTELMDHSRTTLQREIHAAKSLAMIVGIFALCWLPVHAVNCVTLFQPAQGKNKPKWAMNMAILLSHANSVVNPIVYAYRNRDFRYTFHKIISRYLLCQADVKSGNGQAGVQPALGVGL
As to the kind of experiment: A2B radioligand filtration binding assay ([3H]-DPCPX competition). The conditions noted are these: membranes from HEK293 cells expressing human A2B receptor; mean of at least two independent determinations; read-out: Ki hA2B. The procedure: For A2B, competition assays were carried out in filtration binding assay, incubating in polypropylene 96 well-plates (n^o 267245, NUNC) containing 2 μL of either 1% DMSO solution, test compound or 100 μM 5′NECA (SIGMA E-2387) for non-specific binding, 100 μg of A2B-membranes prepared from HEK293 cells stably expressing the human A2B receptor (Euroscreen ES-013-C) and 35 nM [^3H]-DPCPX (TRK1064, 128 Ci/mmol, Amersham), in a total volume of 200 μl of buffer A+2 Ul/ml adenosine deaminase, for 60 minutes at room temperature.

The target in assay [4] is T4, human A2A receptor (Homo sapiens, UniProt P29274).
T4 construct: expressed in transfected cells; host or cells: HeLa
As to the kind of experiment: A2A radioligand SPA binding assay (3H-ZM241385). Particulars: for Ki: membranes from HeLa cells transfected with human A2A receptor, mean of at least two independent determinations, read-out: Ki hA2A. On the procedure:
For A2A receptors binding technology was SPA (Amhersham) with 3,3 nM ^3H-ZM241385, […] unlabelled NECA, membranes from HeLa cells transfected with human A2A receptor, incubated 1 h. at room temperature with 1 mg YSi-WGA beads in TrisHCl 50 mM pH 7.4, EDTA 1 mM, MgCl2 10 mM, 2 U/ml adenosin deaminase.

The values that follow come from patent US20100105723A1, “5-PHENYL-6-PYRIDIN-4-YL-1,3-DIHYDRO-2H-IMIDAZO[4,5-b]PYRIDIN-2-ONE DERIVATIVES USEFUL AS A2B ADENOSINE RECEPTOR ANTAGONISTS” (priority 2006, published 2010).

T4 sequence (P29274 whole entry): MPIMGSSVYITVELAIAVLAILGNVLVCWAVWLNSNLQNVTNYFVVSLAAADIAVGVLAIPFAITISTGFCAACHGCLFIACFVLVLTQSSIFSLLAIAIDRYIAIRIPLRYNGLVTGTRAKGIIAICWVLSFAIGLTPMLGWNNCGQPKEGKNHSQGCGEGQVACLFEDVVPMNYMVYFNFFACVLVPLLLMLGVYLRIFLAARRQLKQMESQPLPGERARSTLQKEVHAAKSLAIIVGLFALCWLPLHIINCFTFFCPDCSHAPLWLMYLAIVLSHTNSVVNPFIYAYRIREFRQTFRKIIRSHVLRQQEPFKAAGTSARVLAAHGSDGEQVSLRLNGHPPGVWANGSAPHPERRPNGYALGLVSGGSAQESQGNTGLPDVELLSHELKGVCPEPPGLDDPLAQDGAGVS

On to `O=c1[nH]c2cc(-c3ccncc3F)c(-c3ccccc3F)nc2[nH]1` [Example 1, 5-(2-Fluorophenyl)-6-(3-fluoropyridin-4-yl)-1,3-dihydro-2H-imidazo[4,5-b]pyridin-2-one], for which the inhibition at 1 µM in assay [1] was 19%. Further, the Ki was over 1000 nM in assay [1], 35 nM in assay [2], 0.9 nM in assay [3] and 721 nM in assay [4].
For `O=c1[nH]c2cc(-c3ccncc3Cl)c(-c3ccccc3F)nc2[nH]1` [Example 2, 6-(3-Chloropyridin-4-yl)-5-(2-fluorophenyl)-1,3-dihydro-2H-imidazo[4,5-b]pyridin-2-one], in that order: 22%, over 1000 nM, 76 nM, 1.8 nM and 449 nM.
Turning to `O=c1[nH]c2cc(-c3c(F)cncc3F)c(-c3ccccc3F)nc2[nH]1` [Example 3, 6-(3,5-Difluoropyridin-4-yl)-5-(2-fluorophenyl)-1,3-dihydro-2H-imidazo[4,5-b]pyridin-2-one], in assay [1], the inhibition at 1 µM came out at 18%. Also, the Ki was over 1000 nM in assay [1], 632 nM in assay [2], 1.1 nM in assay [3] and over 2500 nM in assay [4]. In assay [4] (at indicated concentration (2500 nM), read-out: % inhibition of radioligand binding at indicated concentration, hA2A), the inhibition at 2.5 µM came to 6%.
